# Assay results reported in patent EP0221541A2, “Quinolonecarboxylic acid derivatives and their preparation” (KYORIN PHARMACEUTICAL CO., LTD., priority 1985, dated 1987).
# Counter-ions that a name gives are not always drawn. Like-named read-outs stand apart in the source and are kept apart here.
# Tests used:
# Assay type in all cases: cell-based
# [1] = tested on: Enterobacter cloacae IID 977; test: MIC, antibacterial spectrum (aerobic bacteria); settings: IID977
# [2] = tested on: P. mirabilis IID 994; test: MIC, antibacterial spectrum (aerobic bacteria); settings: Proteus mirabilis, IID994; P. mirabilis IID 994, Gram -, 10^6 cells/ml, aerobic; read-out: MIC
# [3] = tested on: P. aeruginosa IID 1210; test: MIC, antibacterial spectrum (aerobic bacteria); settings: Pseudomonas aeruginosa, IID1210; P. aeruginosa IID 1210, Gram -, 10^6 cells/ml, aerobic; read-out: MIC
# [4] = tested on: Bacillus subtilis PCI 219; test: MIC, antibacterial spectrum (aerobic bacteria); settings: PCI219; Bacillus subtilis PCI 219, Gram +, 10^6 cells/ml, aerobic; read-out: MIC
# [5] = tested on: K. pneumoniae 1-220S; test: MIC, antibacterial spectrum (aerobic bacteria); settings: Klebsiella pneumoniae, 1220S; K. pneumoniae 1-220S, Gram -, 10^6 cells/ml, aerobic; read-out: MIC
# [6] = tested on: Peptostreptococcus anaerobius KYA 27337; test: MIC, antibacterial spectrum (anaerobic bacteria); settings: KYA27337; Peptostreptococcus anaerobius KYA 27337, Gram +, 10^6 cells/ml, anaerobic; read-out: MIC
# [7] = tested on: B. fragilis 0558; test: MIC, antibacterial spectrum (anaerobic bacteria); settings: Bacteroides fragilis; B. fragilis 0558, Gram -, 10^6 cells/ml, anaerobic; read-out: MIC
# [8] = tested on: S. aureus IID 670 (Terajima); test: MIC, antibacterial spectrum (aerobic bacteria); settings: Staphylococcus aureus, IID670; S. aureus IID 670 (Terajima), Gram +, 10^6 cells/ml, aerobic; read-out: MIC
# [9] = tested on: Pseudomonas aeruginosa V-1; test: MIC, antibacterial spectrum (aerobic bacteria); settings: V1
# [10] = tested on: S. epidermidis IID 866; test: MIC, antibacterial spectrum (aerobic bacteria); settings: Staphylococcus epidermidis, IID866; S. epidermidis IID 866, Gram +, 10^6 cells/ml, aerobic; read-out: MIC
# [11] = tested on: Fusobacterium necrophorum S-45; test: MIC, antibacterial spectrum (anaerobic bacteria); settings: S45; Fusobacterium necrophorum S-45, Gram -, 10^6 cells/ml, anaerobic; read-out: MIC
# [12] = tested on: P. cepacia GIFU 518; test: MIC, antibacterial spectrum (aerobic bacteria); settings: Burkholderia cepacia, GIFU518; P. cepacia GIFU 518, Gram -, 10^6 cells/ml, aerobic; read-out: MIC
# [13] = tested on: P. maltophilia GIFU 2491; test: MIC, antibacterial spectrum (aerobic bacteria); settings: Stenotrophomonas maltophilia, GIFU2491; P. maltophilia GIFU 2491, Gram -, 10^6 cells/ml, aerobic; read-out: MIC
# [14] = tested on: S. pyogenes IID 689 (S-8); test: MIC, antibacterial spectrum (aerobic bacteria); settings: Streptococcus pyogenes, IID689; S. pyogenes IID 689 (S-8), Gram +, 10^6 cells/ml, aerobic; read-out: MIC
# [15] = tested on: B. distasonis 8503; test: MIC, antibacterial spectrum (anaerobic bacteria); settings: Parabacteroides distasonis; B. distasonis 8503, Gram -, 10^6 cells/ml, anaerobic; read-out: MIC
# [16] = tested on: E. faecalis IID 682; test: MIC, antibacterial spectrum (aerobic bacteria); settings: Enterococcus faecalis, IID682; E. faecalis IID 682, Gram +, 10^6 cells/ml, aerobic; read-out: MIC
# [17] = tested on: P. aeruginosa IFO 12689; test: MIC, antibacterial spectrum (aerobic bacteria); settings: Pseudomonas aeruginosa, IFO12689; P. aeruginosa IFO 12689, Gram -, 10^6 cells/ml, aerobic; read-out: MIC
# [18] = tested on: P. cepacia KY 84; test: MIC, antibacterial spectrum (aerobic bacteria); settings: Burkholderia cepacia, KY84, P. cepacia KY 84, Gram -, 10^6 cells/ml
# [19] = Enterobacter cloacae IID 977, Gram -, 10^6 cells/ml, aerobic, read-out: MIC
# [20] = Pseudomonas aeruginosa V-1, Gram -, 10^6 cells/ml, aerobic, read-out: MIC
Structure (SMILES),"MIC [1, 19]",MIC [2],MIC [3],MIC [4],MIC [5],MIC [6],MIC [7],MIC [8],"MIC [9, 20]",MIC [10],MIC [11],MIC [12],MIC [13],MIC [14],MIC [15],MIC [16],MIC [17],MIC [18],MIC ([1]; Enterobacter cloacae),MIC ([9]; Pseudomonas aeruginosa)
"O=C(O)c1cn(C2CC2)c2c(Cl)c(N3CCC(CNCCO)C3)c(F)cc2c1=O (stereo not shown) [Exp. 3, 8-Chloro-1-cyclopropyl-6-fluoro-1,4-dihydro-7-(3-(2-hydroxyethylaminomethyl)-1-pyrrolidinyl]-4-oxo-3-quinolinecarboxylic acid]",0.1 µg/mL,0.05 µg/mL,1.56 µg/mL,0.0125 µg/mL,0.1 µg/mL,0.025 µg/mL,0.2 µg/mL,0.025 µg/mL,0.2 µg/mL,0.0125 µg/mL,0.1 µg/mL,1.56 µg/mL,0.2 µg/mL,0.0125 µg/mL,0.78 µg/mL,0.1 µg/mL,1.56 µg/mL,–,–,–
"O=C(O)c1cn(C2CC2)c2c(F)c(N3CCC(CNCCO)C3)c(F)cc2c1=O (stereo not shown) [Exp. 1, 1-Cyclopropyl-6,8-difluoro-1,4-dihydro-7-[3-(2-hydroxyethylaminomethyl)-1-pyrrolidinyl]-4-oxo-3-quinolinecarboxylic acid]",0.2 µg/mL,0.05 µg/mL,1.56 µg/mL,0.0125 µg/mL,0.2 µg/mL,≤ 0.05 µg/mL,0.78 µg/mL,0.05 µg/mL,0.78 µg/mL,0.025 µg/mL,0.2 µg/mL,–,–,0.025 µg/mL,–,0.1 µg/mL,1.56 µg/mL,3.13 µg/mL,–,–
"O=C(O)c1cn(C2CC2)c2cc(N3CCC(CNCCO)C3)c(F)cc2c1=O (stereo not drawn) [Exp. 2, l-Cyclopropyl-6-fluoro-l,4-dihydro-7-[3-(2-hydroxyethylaminomethyl)-l-pyrrolidinyl]-4-oxo-3-quinolinecarboxylic acid hydrochloride]",–,0.39 µg/mL,6.25 µg/mL,≤ 0.05 µg/mL,0.78 µg/mL,0.78 µg/mL,50 µg/mL,0.2 µg/mL,–,0.1 µg/mL,0.78 µg/mL,–,–,0.1 µg/mL,–,0.78 µg/mL,6.25 µg/mL,–,1.56 µg/mL,1.56 µg/mL
